Substitutions are numbered along the chain they refer to.
Legend:
[1] = biological target: T1, Rad50 (Saccharomyces cerevisiae, UniProt P12753, D67Y); experiment: nitrocellulose filter binding, […]-ATP; settings: 2 uM Rad50, 50 uM ATP incl. 0.1 uM alpha-32P-ATP (labelled compound), 2 mM MgCl2, pH 8.0, RT then ice
T1 construct: full-length Rad50 with C-terminal 1xFLAG tag (DYKDDDDK), tag kept; plasmid pR50.1 (2mu, GAL-PGK-RAD50); overexpressed and purified from yeast
T1 sequence (P12753 1-1312 D67Y): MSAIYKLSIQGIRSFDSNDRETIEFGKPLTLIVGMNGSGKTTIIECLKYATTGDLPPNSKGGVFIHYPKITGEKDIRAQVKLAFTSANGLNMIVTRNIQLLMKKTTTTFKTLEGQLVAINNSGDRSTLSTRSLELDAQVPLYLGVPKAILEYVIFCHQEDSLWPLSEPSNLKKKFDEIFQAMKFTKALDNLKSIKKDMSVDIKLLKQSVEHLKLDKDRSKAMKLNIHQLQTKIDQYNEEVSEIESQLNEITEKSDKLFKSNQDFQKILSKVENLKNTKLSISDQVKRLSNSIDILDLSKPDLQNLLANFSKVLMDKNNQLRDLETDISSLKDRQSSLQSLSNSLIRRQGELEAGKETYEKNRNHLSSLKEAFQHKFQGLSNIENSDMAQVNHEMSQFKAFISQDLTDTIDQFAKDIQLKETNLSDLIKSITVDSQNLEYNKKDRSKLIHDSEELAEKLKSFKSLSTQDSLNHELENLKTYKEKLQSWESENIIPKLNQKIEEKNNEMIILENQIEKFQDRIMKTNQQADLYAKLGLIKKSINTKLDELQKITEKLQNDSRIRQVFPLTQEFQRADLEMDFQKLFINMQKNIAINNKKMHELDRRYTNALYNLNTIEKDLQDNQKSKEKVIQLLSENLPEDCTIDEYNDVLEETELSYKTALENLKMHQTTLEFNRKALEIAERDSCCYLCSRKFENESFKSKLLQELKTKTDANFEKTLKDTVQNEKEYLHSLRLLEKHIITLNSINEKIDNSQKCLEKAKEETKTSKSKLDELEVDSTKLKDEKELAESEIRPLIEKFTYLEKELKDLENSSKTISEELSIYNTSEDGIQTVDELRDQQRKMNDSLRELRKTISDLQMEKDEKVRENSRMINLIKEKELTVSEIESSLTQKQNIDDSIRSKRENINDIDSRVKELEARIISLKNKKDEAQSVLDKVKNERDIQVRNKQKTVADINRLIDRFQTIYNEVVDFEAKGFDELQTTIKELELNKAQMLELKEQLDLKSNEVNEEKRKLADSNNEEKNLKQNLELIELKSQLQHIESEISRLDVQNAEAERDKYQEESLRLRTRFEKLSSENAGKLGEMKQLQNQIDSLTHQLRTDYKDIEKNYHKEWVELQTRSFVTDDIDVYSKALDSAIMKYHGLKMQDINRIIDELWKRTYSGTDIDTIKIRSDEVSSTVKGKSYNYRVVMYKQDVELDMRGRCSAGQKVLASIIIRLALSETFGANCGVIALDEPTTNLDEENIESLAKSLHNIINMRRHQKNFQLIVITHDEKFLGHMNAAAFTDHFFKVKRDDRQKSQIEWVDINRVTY

[2] = biological target: T2, Rad50 (Saccharomyces cerevisiae, UniProt P12753, D67N); experiment: nitrocellulose filter binding, […]-ATP; settings: 2 uM Rad50, 50 uM ATP incl. 0.1 uM alpha-32P-ATP (labelled compound), 2 mM MgCl2, pH 8.0, RT then ice
T2 construct: full-length Rad50 with C-terminal 1xFLAG tag (DYKDDDDK), tag kept; plasmid pR50.1 (2mu, GAL-PGK-RAD50); overexpressed and purified from yeast
T2 sequence (P12753 1-1312 D67N): T1 sequence (P12753 1-1312 D67Y) with Y67N

[3] = biological target: T3, Rad50 (Saccharomyces cerevisiae, UniProt P12753, L1240F); experiment: nitrocellulose filter binding, […]-ATP; settings: 2 uM Rad50, 50 uM ATP incl. 0.1 uM alpha-32P-ATP (labelled compound), 2 mM MgCl2, pH 8.0, RT then ice
T3 construct: full-length Rad50 with C-terminal 1xFLAG tag (DYKDDDDK), tag kept; plasmid pR50.1 (2mu, GAL-PGK-RAD50); overexpressed and purified from yeast
T3 sequence (P12753 1-1312 L1240F): T1 sequence (P12753 1-1312 D67Y) with Y67D, L1240F

[4] = biological target: T4, Rad50 (Saccharomyces cerevisiae, UniProt P12753); experiment: nitrocellulose filter binding, […]-ATP; settings: 2 uM Rad50, 50 uM ATP incl. 0.1 uM alpha-32P-ATP (labelled compound), 2 mM MgCl2, pH 8.0, RT then ice
T4 construct: full-length Rad50 with C-terminal 1xFLAG tag (DYKDDDDK), tag kept; plasmid pR50.1 (2mu, GAL-PGK-RAD50); overexpressed and purified from yeast
T4 sequence (P12753 1-1312): T1 sequence (P12753 1-1312 D67Y) with Y67D

[5] = test system: Rad50 WT (Saccharomyces cerevisiae); experiment: EMSA; settings: ATP, 5 mM Mg2+, 150 mM NaCl; 25 mM Tris-Cl pH 7.6, 150 mM NaCl (also 50, 250, 300 mM), 7.5% glycerol, 1 mM beta-mercaptoethanol, 0.125% Igepal, 5 mM MgCl2, with or without 5 mM ATP; 5 nM …

| Molecule | ATP/Rad50 [1] [ATP/Rad50] | ATP/Rad50 [2] [ATP/Rad50] | ATP/Rad50 [3] [ATP/Rad50] | molar ratio of bound ATP to Rad50 [4] [ATP/Rad50] | Kd [5] [nM] |
| --- | --- | --- | --- | --- | --- |
| Nc1ncnc2c1ncn2[C@@H]1O[C@H](COP(=O)(O)OP(=O)(O)OP(=O)(O)O)[C@@H](O)[C@H]1O [ATP] | 0.7 | 0.6 | 0.4 | 1.1 | – |
| 83-mer dsDNA oligonucleotide | – | – | – | – | 180 |

Source: article PMC7105138, “Modeling cancer genomic data in yeast reveals selection against ATM function during tumorigenesis” (PLoS Genetics, 2020)
